The record followed here is US7576222B2, “Alkynyl-containing tryptophan derivative inhibitors of TACE/matrix metalloproteinase” (priority 2004, dated 2009).

Test [1] relates to TNF-α Secretion in Raw Cells (Raw 264.7 cells). The experiment in a line: Cell-based assay for inhibition of TNF-α secretion in Raw cells. Conditions: read-out: TNF-α Secretion in Raw Cells IC50. How it is done: Cell-Based Assay for Inhibition of TNF-A Secretion in Raw Cells
(§1) The basic measurement of the assay is the percentage of inhibition of TNF-α secretion and the IC50 determination by a fitting with the model-39 of LSW data analysis tool.
Raw 264.7 cells (ATCC Cat No. TIB-71) are maintained in DMEM medium containing 10% of serum, P/S, and Glutamine. […] For testing compounds, cells are cultured to confluence and are seeded the day before the experiment in 24 well culture dishes at 0.5 to 1 million/ml/well. On the next morning, the medium from the overnight culture is replaced with the fresh growth medium. The compounds are added at various concentrations at the 0.2% of final DMSO concentrations (10 μl of a 20% DMSO solution containing testing compounds is added to each well). The cells are pre-incubated with compounds for 1 hour. LPS (Sigma, L2262) is added to cells at a final concentration of 100 ng/ml (10 μl of a […] LPS solution freshly diluted from a 1 mg/ml LPS stock solution in PBS is added to each well) and cells are further incubated for 4 hours at 37° C. One milliliter (1 ml) of the supernatant was collected, cells are spun down and the supernatants are frozen at −80° C. until use.
The TNF-α and other proinflammatory cytokines were detected by ELISA assay according to the manufacturer's instruction (Biosource International, Inc., Camarillo, Calif.) (For IL-1b measurement in Raw cells, one round of freeze and thaw of the cells was required.)

The target of test [2] is T1, catalytic domain of the recombinant TACE protein (Homo sapiens, UniProt P78536).
T1 construct: The catalytic domain of the recombinant TACE protein was expressed and purified; made in house
The experiment in a line: TACE FRET assay using TACE cat. Format: biochemical. An outline of the steps:
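Enzyme (1 ug/ml) pretreated with inhibitor for 10 min at room temperature in 50 mM Tris-HCl pH 7.4, 25 mM NaCl, 4% glycerol, 0.005% Brij 35, then started with FRET peptide Abz-[sequence]-Dpa (2 mM stock). Initial rate taken from fluorescence slope; IC50 fitted with floated Hill slope and background.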

In test [3] the target is T2, recombinant human catalytic domain of MMP-13 (Homo sapiens, UniProt P45452).
T2 construct: catalytic domain of MMP-13 (165 amino acids, residues 104-268, 19 kDa)
The experiment in a line: biochemical. An excerpt: (§2) A continuous assay was used in which the substrate is a synthetic peptide containing a fluorescent group (7-methoxycoumarin; Mca) that is quenched by energy transfer to a 2,4-dinitrophenyl group. See Knight, C. G. et al., FEBS Lett. (1992) 296: 263-266, incorporated herein by reference in its entirety. […] See Zhang, Y et al., Journal of Pharmacology and Experimental Therapeutics (JPET) (2004) 309:348-355, incorporated by reference in its entirety. The substrate used was Mca-PQGL-(3-[2,4-dinitrophenyl]-L-2,3-diaminopropionyl)-AR-OH (denoted as Wammp-5, custom synthesized by AnaSpec, Inc., San Jose, Calif.). The assay buffer consisted of 50 mM Hepes (pH 7.4), 100 mM NaCl, 5 mM CaCl2, and 0.005% Brij-35. Each well of black polystyrene 96-well plates contained a 200 μl reaction mixture consisting of assay buffer, purified MMP (final concentration of 25 ng/ml, prepared by diluting with the assay buffer), and varied concentrations of inhibitor (prepared by serially diluting a given inhibitor in DMSO in 96-well polypropylene plate). The plates were then incubated at 30° C. for 15 minutes. The enzymatic reactions were initiated by adding the substrate to a final concentration of 20 μM, and mixing 10 times with a pipette. The final DMSO concentration in the assay was 6.0%. The initial rate of the cleavage reaction was determined at 30° C. with a fluorescence plate reader (excitation filter of 330 nm and emission filter of 395 nm) immediately after substrate addition.
(§3) Plots of the inhibitor concentration versus the percent inhibition were fit to the following equation: y=(a−d)/[1+(x/c)^b]+d, a general sigmoidal curve with Hill slope, a to d. x is the inhibitor concentration under test. “y” is the percent inhibition. “a” is the limiting response as x approaches zero. As x increases without bound, y tends toward its limit d. “c” is the inflection point (IC50) for the curve. That is, y is halfway between the lower and upper asymptotes when x=c. “b” is the slope factor or Hill coefficient.
In-Vitro Fluorescence Assay of MMP-13 Activity
See Zhang, Y et al., Journal of Pharmacology and Experimental Therapeutics (JPET) (2004) 309:348-355, incorporated by reference in its entirety.

In another test the target is T3, recombinant human MMP-2 (Homo sapiens, UniProt P08253).
T3 construct: purchased Oncogene Research Products (Calbiochem) PF023
Description: In-vitro fluorescence (FRET) assay of MMP-2 activity. Format: biochemical.
Excerpt: as §2, §3
In-Vitro Fluorescence Assay of MMP-2 Activity

In test [4] the test system is TNF-α Secretion in Human Whole Blood. The experiment in a line: Human whole blood assay for LPS-induced TNF-α secretion. The format is cell-based. Particulars: fresh human blood, LPS 100 ng/ml, TNF-α by ELISA.
Excerpt: as §1
Background: ELISA stands for enzyme-linked immunosorbent assay.

Test [5] deals with T4, recombinant human catalytic domain of MMP-1 (Homo sapiens, UniProt P03956).
T4 construct: the recombinant human catalytic domain of MMP-1
T4 sequence (P03956 100-269 limits assumed): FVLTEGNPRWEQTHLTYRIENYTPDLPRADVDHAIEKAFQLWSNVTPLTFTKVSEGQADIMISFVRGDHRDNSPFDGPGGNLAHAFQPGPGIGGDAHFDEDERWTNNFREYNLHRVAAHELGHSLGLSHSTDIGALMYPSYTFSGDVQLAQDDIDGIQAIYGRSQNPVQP
The experiment in a line: In-vitro fluorescence (FRET) assay of MMP-1 activity. Format: biochemical.
Excerpt: In-Vitro Fluorescence Assay of MMP-1 Activity
A continuous assay was used in which the substrate is a synthetic peptide containing a fluorescent group (7-methoxycoumarin; Mca) that is quenched by energy transfer to a 2,4-dinitrophenyl group. See Knight, C. G. et al., FEBS Lett. (1992) 296: 263-266, incorporated herein by reference in its entirety. When the peptide was cleaved by MMP, a large increase in fluorescence was observed. The source of enzyme in the assay was the recombinant human catalytic domain of MMP-1. See Zhang, Y et al., Journal of Pharmacology and Experimental Therapeutics (JPET) (2004) 309:348-355, incorporated by reference in its entirety. The substrate used was Mca-PQGL-(3-[2,4-dinitrophenyl]-L-2,3-diaminopropionyl)-AR-OH (denoted as Wammp-5, custom synthesized by AnaSpec, Inc., San Jose, Calif.). The assay buffer consisted of 50 mM Hepes (pH 7.4), 100 mM NaCl, 5 mM CaCl2, and 0.005% Brij-35. Each well of black polystyrene 96-well plates contained a 200 μl reaction mixture consisting of assay buffer, purified MMP (final concentration of 25 ng/ml, prepared by diluting with the assay buffer), and varied concentrations of inhibitor (prepared by serially diluting a given inhibitor in DMSO in 96-well polypropylene plate). The plates were then incubated at 30° C. for 15 minutes. The enzymatic reactions were initiated by adding the substrate to a final concentration of 20 μM, and mixing 10 times with a pipette. The final DMSO concentration in the assay was 6.0%. The initial rate of the cleavage reaction was determined at 30° C. with a fluorescence plate reader (excitation filter of 330 nm and emission filter of 395 nm) immediately after substrate addition.
as §3

Test [6] addresses T5, recombinant human catalytic domain of MMP-14 (Homo sapiens, UniProt P50281).
T5 construct: 177 amino acids corresponding to Tyr89-Gly265 of mature human enzyme; 20 kDa; purchased Chemicon International, Inc. CC1041
Description: biochemical.
Excerpt: as §2, §3
In-Vitro Fluorescence Assay of MMP-14 Activity

The mark [7] stands for this setting: TACE FRET assay, catalytic domain of recombinant TACE, read-out: TACE IC50.
Setting [8] is: Raw 264.7 cells, LPS 100 ng/ml, 4 hours, TNF-α by ELISA.

Like-named read-outs stand apart in the source and are kept apart here.

T3 sequence (P08253 110-660): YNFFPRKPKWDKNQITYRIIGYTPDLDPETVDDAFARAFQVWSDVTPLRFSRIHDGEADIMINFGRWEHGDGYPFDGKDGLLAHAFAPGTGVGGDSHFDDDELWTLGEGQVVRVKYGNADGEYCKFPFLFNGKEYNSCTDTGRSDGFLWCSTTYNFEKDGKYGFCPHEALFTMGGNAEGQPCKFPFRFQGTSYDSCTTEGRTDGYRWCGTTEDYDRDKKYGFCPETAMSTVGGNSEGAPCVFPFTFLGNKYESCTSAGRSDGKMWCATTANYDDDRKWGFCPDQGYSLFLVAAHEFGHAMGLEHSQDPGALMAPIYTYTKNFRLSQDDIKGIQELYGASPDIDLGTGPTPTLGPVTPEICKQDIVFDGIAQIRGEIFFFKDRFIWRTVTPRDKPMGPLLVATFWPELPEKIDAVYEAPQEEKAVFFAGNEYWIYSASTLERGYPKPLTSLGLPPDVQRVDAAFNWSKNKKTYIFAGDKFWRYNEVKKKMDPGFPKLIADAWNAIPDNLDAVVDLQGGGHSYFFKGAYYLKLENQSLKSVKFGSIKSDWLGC
T1 sequence (P78536 223-474 limits assumed): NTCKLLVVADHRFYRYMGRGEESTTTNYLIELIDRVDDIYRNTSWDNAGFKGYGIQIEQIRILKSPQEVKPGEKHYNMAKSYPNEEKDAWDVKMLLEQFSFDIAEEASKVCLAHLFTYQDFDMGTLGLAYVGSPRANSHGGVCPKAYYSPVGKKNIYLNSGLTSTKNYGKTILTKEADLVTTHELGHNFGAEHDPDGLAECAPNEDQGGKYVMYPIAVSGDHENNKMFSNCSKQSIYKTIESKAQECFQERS

Regarding `CC#CCOc1ccc(S(=O)(=O)N[C@H](Cc2cn(CCCCOc3ccccc3)c3ccccc23)C(=O)O)cc1` [Example 24, N-{[4-(but-2-ynyloxy)phenyl]sulfonyl}-1-(4-phenoxybutyl)-D-tryptophan], the IC50 in test [1] (Mus musculus, RAW264.7, 4 h) is above 60 µM; in test [2] (setting [7]), 1.25 µM.
With `CC#CCOc1ccc(S(=O)(=O)N[C@@H](Cc2c(C)n(Cc3ccc(F)cc3)c3ccc(OC)cc23)C(=O)O)cc1` [Example 199, N-{[4-(but-2-ynyloxy)phenyl]sulfonyl}-1-(4-fluorobenzyl)-5-methoxy-2-methyltryptophan], the IC50 in test [1] (Mus musculus, RAW264.7, 4 h) was above 60 µM; in test [2] it was 0.32 µM.
As for `CC#CCOc1ccc(S(=O)(=O)N[C@H](Cc2cn(Cc3ccccc3-c3ccccc3)c3ccccc23)C(=O)O)cc1` [Example 27, 1-(1,1′-biphenyl-2-ylmethyl)-N-{[4-(but-2-ynyloxy)phenyl]sulfonyl}-D-tryptophan], the IC50 in test [1] (Mus musculus, RAW264.7, 4 h) is above 60 µM; in test [2] (setting [7]), 0.97 µM.
As for `CC#CCOc1ccc(S(=O)(=O)N[C@H](Cc2cn(Cc3ccc(F)cc3)c3ccccc23)C(=O)O)cc1` [Example 28, N-{[4-(but-2-ynyloxy)phenyl]sulfonyl}-1-(4-fluorobenzyl)-D-tryptophan], the results for the IC50 (in test [3]; at recombinant human MMP-2; in test [2] (setting [7])) were 17 µM, 3.97 µM and 1.9 µM, respectively.
Consider `CC#CCOc1ccc(S(=O)(=O)N[C@@H](Cc2c[nH]c3ccc(C)cc23)C(=O)O)cc1` [Example 218, N-{[4-(but-2-ynyloxy)phenyl]sulfonyl}-5-methyl-L(or D)-tryptophan], for which the 50% inhibitory concentration (IC50) in test [3] is 1.81 µM; in test [4] it was above 50 µM; in test [1] (setting [8]), 7.11 µM; in test [6] it was 6.82 µM; at recombinant human MMP-2, 0.27 µM; in test [2] (setting [7]), 0.14 µM. Besides, the “MMP-1 Inhibition” value in test [5] (Conc. 160 μM) worked out at 30%.
Turning to `CC#CCOc1ccc(S(=O)(=O)N[C@H](Cc2cn(Cc3ccc(OC)cc3)c3ccccc23)C(=O)O)cc1` [Example 35, N-{[4-(but-2-ynyloxy)phenyl]sulfonyl}-1-(4-methoxybenzyl)-D-tryptophan], the inhibition at 33 µM in test [5] (read-out: MMP-1 Inhibition) is 14%. The IC50 in test [1] (Mus musculus, RAW264.7, 4 h) is above 60 µM; in test [6] it was 13 µM; in test [2] (setting [7]) it was 0.08 µM.
With `CC#CCOc1ccc(S(=O)(=O)NC(Cc2c[nH]c3ccc(C)cc23)C(=O)O)cc1` (racemic) [Example 6, N-{[4-(but-2-ynyloxy)phenyl]sulfonyl}-5-methyltryptophan], the IC50 in test [3] came out at 6.87 µM; on recombinant human MMP-2, 1.16 µM; in test [2] it was 0.28 µM.
`CC#CCOc1ccc(S(=O)(=O)NC(Cc2c[nH]c3ccc(OC)cc23)C(=O)O)cc1` (racemic) [Example 4, N-{[4-(but-2-ynyloxy)phenyl]sulfonyl}-5-methoxytryptophan]: in test [3] (read-out: MMP-13 Inhibition), the inhibition at 15 µM was found to be 50%. Further, the inhibition at 1000 µM in test [5] (read-out: MMP-1 Inhibition) was 33%. Further, the IC50 in test [6] came out at 22.7 µM; at recombinant human MMP-2 it was 7.84 µM; in test [2] it was 0.36 µM.
As to `CC#CCOc1ccc(S(=O)(=O)N[C@@H](Cc2c[nH]c3ccc(OC)cc23)C(=O)O)cc1` [Example 221, N-{[4-(but-2-ynyloxy)phenyl]sulfonyl}-5-methoxy-D(or L)-tryptophan], the IC50 in test [3] turned out to be 13.6 µM; in test [1] (setting [8]), 57 µM; in test [6], 20.7 µM; on recombinant human MMP-2 it was 1.27 µM; in test [2] (setting [7]) it was 0.14 µM. Moreover, the “MMP-1 Inhibition” value in test [5] (Conc. 83 μM) came out at 9%.
For the compound `CC#CCOc1ccc(S(=O)(=O)NC(Cc2c[nH]c3ccc(OCc4ccccc4)cc23)C(=O)O)cc1` (racemic) [Example 20, 5-(benzyloxy)-N-{[4-(but-2-ynyloxy)phenyl]sulfonyl}tryptophan], the IC50 stood at 15.3 µM in test [3], 7.85 µM on recombinant human MMP-2 and 0.75 µM in test [2].
Regarding `CC#CCOc1ccc(S(=O)(=O)N[C@@H](Cc2c[nH]c3ccc(OCc4ccccc4)cc23)C(=O)O)cc1` [Example 224, 5-(benzyloxy)-N-{[4-(but-2-ynyloxy)phenyl]sulfonyl}-L(or D)-tryptophan], the IC50 worked out at 4.44 µM in test [3], 19.7 µM in test [6] and 2.45 µM on recombinant human MMP-2. The “MMP-1 Inhibition” value in test [5] (Conc. 83 μM) turned out to be 19%.
Take `CC#CCOc1ccc(S(=O)(=O)NC(Cc2cn(Cc3ccc(OC)cc3)c3ccc(C)cc23)C(=O)O)cc1` (stereo not drawn) [Example 47, N-{[4-(but-2-ynyloxy)phenyl]sulfonyl}-1-(4-methoxybenzyl)-5-methyltryptophan]: in test [5] (read-out: MMP-1 Inhibition), the inhibition at 67 µM amounted to 30%. Further, the IC50 in test [6] was 11.6 µM; at recombinant human MMP-2 it was 0.66 µM.
On to `CC#CCOc1ccc(S(=O)(=O)N[C@@H](Cc2cn(CCCCC)c3ccc(OC)cc23)C(=O)O)cc1` [Example 68, N-{[4-(but-2-ynyloxy)phenyl]sulfonyl}-5-methoxy-1-pentyltryptophan], for which, in test [2], the IC50 amounted to 1.32 µM.

The IC50 is the concentration that inhibits the measured activity by half. What is called inhibition is the share of the control response that was lost under treatment.
